target: recombinant HIV-1 integrase (Human immunodeficiency virus type 1 group M subtype B, UniProt P12497); test: High throughput electrochemiluminescent; format: biochemical; conditions: not given

| IC50 [nM] | Compound |
| --- | --- |
| 30 | O=C(O)/C(O)=C/C(=O)c1cn(Cc2ccc(F)cc2)c2ccc(F)cc2c1=O [6b, 4-[6-Fluoro-1-(4-fluorophenyl)methyl-4(1H)-quinolinon-3-yl]-2-hydroxy-4-oxo-2-butenoic Acid] |
| > 111000 | CCOC(=O)/C(O)=C/C(=O)c1c[nH]c2cc(Cl)ccc2c1=O [7b, 4-(7-Chloro-4(1H)-quinolinon-3-yl)-2-hydroxy-4-oxo-2-butenoic Acid Ethyl Ester] |
| 23 | O=C(O)/C(O)=C/C(=O)c1cn(Cc2ccc(F)cc2)c2c(Cl)cccc2c1=O [6g, 4-[8-Chloro-1-(4-fluorophenyl)methyl-4(1H)-quinolinon-3-yl]-2-hydroxy-4-oxo-2-butenoic Acid] |
| > 111000 | O=C(O)/C(O)=C/C(=O)c1c[nH]c2ccc(Cl)cc2c1=O [8a, 4-(6-Chloro-4(1H)-quinolinon-3-yl)-2-hydroxy-4-oxo-2-butenoic Acid] |

same assay, conditions: relative to 6f

| times less potent than parent compound 6f (ST, HTECL) | Compound |
| --- | --- |
| approximately 1.5 | O=C(O)/C(O)=C/C(=O)c1cn(Cc2ccc(F)cc2)c2cc(N3CCCC3)ccc2c1=O [6i, 4-[1-(4-Fluorophenyl)methyl-7-(pyrrolidin-1-yl)-4(1H)-quinolinon-3-yl]-2-hydroxy-4-oxo-2-butenoic Acid] |
| approximately 1.5 | O=C(O)/C(O)=C/C(=O)c1cn(Cc2ccc(F)cc2)c2cc(Cl)c(Cl)cc2c1=O [6h, 4-[6,7-Dichloro-1-(4-fluorophenyl)methyl-4(1H)-quinolinon-3-yl]-2-hydroxy-4-oxo-2-butenoic Acid] |

Reference: article PMC2646871 (Journal of Medicinal Chemistry, 2008)
